Results reported in PMC9732823, “Discovery of Dual Aβ/Tau Inhibitors and Evaluation of Their Therapeutic Effect on a Drosophila Model of Alzheimer’s Disease” (ACS Chemical Neuroscience, 2022).

Key:
Aβ42 = target: T1, Aβ42 (Homo sapiens, UniProt P05067); assay: Inhibition of Aβ42 aggregation in intact E. coli cells overexpressing Aβ42 (ThS fluorescence); assay type: cell-based, Escherichia coli
T1 construct: expressed in transfected cells; host or cells: Escherichia coli BL21 (DE3), pET28a
Outline: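 E. coli BL21(DE3) expressing Met-Aβ42 grown in M9 with 250 μM ThS, induced with IPTG at OD600 0.6 alongside 10 μM compound, then overnight at 37 °C. ThS emission at 485 nm (ex 440 nm) normalised to OD600. 100% = induced cells without drug, 0% = non-induced cells.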

preaggregated Aβ42 = target: T2, preaggregated Aβ42 (Homo sapiens, UniProt P05067); assay: Optical properties of 23 in the presence of aggregated Aβ42 (fluorescence emission spectra); assay type: binding; details: 23 0.375 μM, Aβ42 0.75 μM, Gly-NaOH buffer 50 mM pH 8.5, λexc = 374 nm
T2 construct: (HFIP)-pretreated Aβ42 samples (Bachem AG, Switzerland); purchased Bachem AG, Switzerland
Description: The interaction of a fluorescent compound with three-dimensionally organized Aβ42 fibrils may lead to a change in its fluorescent properties as a consequence of either a reduction of flexibility due to multiple-interaction points and/or of a change in compound–solvent interactions because of the insertion of the compound within fibril helices. […] This assay setup allows the use of a slightly higher amount of DMSO, which is sufficient to grant compound solubility, because addition of the tested compound to Aβ42 samples is performed when fibrillization has already occurred.
Thus, we recorded the emission spectra of compound 23 in the absence and presence of preaggregated Aβ42.
As reported in a previously published protocol,[42] 1,1,1,3,3,3,-hexafluoro-2-propanol (HFIP)-pretreated Aβ42 samples (Bachem AG, Switzerland) were solubilized with a CH3CN/0.3 mM Na2CO3/250 mM NaOH (48.4:48.4:3.2) mixture to obtain a 500 μM solution. […]
A 1.5 mM stock solution of 23 in methanol was prepared and diluted in 50 mM glycine–NaOH buffer (pH 8.5) to a final concentration of 0.375 μM. Excitation and emission fluorescence spectra in the absence and in the presence of preaggregated Aβ42 (0.75 μM) were recorded using the following instrument setup: λexc = 374 nm, emission range = 400–600 nm; λem = 473 nm; excitation range = 250–460 nm; bandwidth (Ex) = 5 nm; bandwidth (Em) = 5 nm; scanning speed = […].

[1] = tested on: Arctic Aβ42 Drosophila flies; assay: Climbing assay in Arctic Aβ42 Drosophila flies; details: 20 μM in fly food
Description: Thus, we performed behavioral tests to assess the climbing abilities of Aβ42Drosophila flies with and without treatment with 22 (20 μM), 23 (20 μM), and doxycycline (50 μM), compared to control flies.
(§1) The transactivating protein GAL4 is placed under the control of a specific promoter, with its own spatial and temporal patterns, in this case, Elav, whereas the upstream activation sequence (UAS) localized upstream, the locus controlled by the UAS-Gal4; in our study, UAS expresses construct for the E22G variant of Aβ42 (Arctic Aβ42) (AlzArc2).[56],[64] Around 150 flies (half female/male) for each compound tested were collected and divided into groups of 25 flies. At the top of the media, 25 μL of doxycycline (50 μM), 22 (20 μM), or 23 (20 μM) were added fresh anytime the flies were flipped.
Briefly, males and females 25 per vial were kept at 25 °C. The climbing test was performed on days 7, 14, and 21 after birth. […] The protocol was repeated 10 times at 5-min intervals.

[2] = tested on: Arctic Aβ42 Drosophila flies; assay: Lifespan analysis in Arctic Aβ42 Drosophila flies; details: 20 μM in fly food; days 5, 10, 20 post-eclosion
Description: As longevity is a phenotype that can be rapidly measured in this in vivo AD model, we first assessed changes in Drosophila’s lifespan with and without treatment with 22 and 23 (20 μM). […] Doxycycline was tested at 50 μM, a concentration used in similar previous experiments.[59]
as §1
Briefly, males and females 25 per vial were kept at 25 °C.

[3] = Solubility in the in vitro aggregation assay conditions; details: dedicated solubility assays
Description: * The results are the mean of at least two independent measurements each performed in duplicate.
1 Compounds were measured at 50 μM.
NS = not soluble in the assay conditions

[4] = tested on: cerebellar granule neurons (CGNs); assay: Neurotoxicity on primary cultures of cerebellar granule neurons (nuclei counting after Hoechst staining); details: differentiated CGNs, 24 h, percentage of healthy nuclei on total nuclei, mean ± SEM of three experiments

T1 sequence (P05067 672-713 limits assumed): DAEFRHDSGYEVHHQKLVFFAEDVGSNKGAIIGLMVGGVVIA
T2 sequence (P05067 672-713 limits assumed): as above

## CN(C)CCN1C(=O)S/C(=C\c2ccc3c(c2)C(C)(C)c2cc(/C=C4\SC(=O)N(CCN(C)C)C4=O)ccc2-3)C1=O [Compound 23, (5Z,5′Z)-5,5′-((9,9-Dimethyl-9H-fluorene-2,7-diyl)bis(methanylylidene))bis(3-(2-(dimethylamino)ethyl)thiazolidine-2,4-dione)]
Aβ42; intact E. coli cells, compound 10 μM, mean ± SEM of four independent experiments, 10 µM
  % inhibition Aβ42 aggregation @ 10 μM: 44.8 ± 4.7%
Aβ42; read-out: % inhibition Aβ42 aggregation @ 10 μM, intact E. coli cells, compound 10 μM, mean ± SEM of four independent experiments
  inhibition at 10 µM: > 40%
Preaggregated Aβ42
  change of fluorescence emission upon binding to preaggregated Aβ42: strong hyperchromic effect upon binding
[1]; day 21
  climbing abilities of Aβ42 Drosophila flies on day 21: no difference between the treated and untreated flies
[1]; days 7, 14, 21 post-eclosion
  climbing abilities of Aβ42 Drosophila flies: partially recovered phenotype that lasted until day 14
[2]
  lifespan of Aβ42 Drosophila flies: increase in longevity
[3]
  solubility in Aβ42 ThT-based assay condition: too limited to grant trustable results
[4]
  % survival neurotoxicity @ 10 μM: 87.9 ± 3.4%
